Measured values: US9339508B2, “Use of 3-methoxy-pregnenolone for the preparation of a drug for treating a traumatic brain injury” (MAPREG, priority 2003, dated 2016)

Tests used:
[1] = tested on: Synaptophysin; assay: Western blot of synaptophysin in cortex and hippocampus after CCI; type: in vivo, rat; conditions: day 35, 20 mg/kg, first injection 2 h post-trauma, injured hippocampus
Experimental: (§1) CCI was performed with an electromagnetic impact device as described (MyNeurolab, St. Louis, Mo.; Brody et al, 2007). Anesthesized rats were subjected to a single right lateral CCI, with the following parameters impact centered 4.0 mm anterior to lambda and 4.5 mm […] of midline, within the craniotomy of the animal. The impact was set at a velocity of 4 m/s with a sustained depression of 200 ms, using a 5.0 mm tip.
(§2) Samples were analyzed by Western-blot at day 35 post-trauma (D35) to evaluate the effects of MAP4343 on: MAP2 (the target of MAP4343 and a modulator of microtubule function), the post-synaptic markers PSD95 and spinophilin, the pre-synaptic marker synaptophysin, and the axonal growth/integrity marker […].
(§3) Western blot was performed on cortex and hippocampus of TBI-injured animals receiving the first injection of MAP4343 (at 10 mg/kg or 20 mg/kg) or vehicle (sesame oil) 2 h after injury.
(§4) The expression level of various neuronal brain markers of plasticity was measured at day 35 post-trauma by western-blots in the cortex and hippocampus of left uninjured and right injured cerebral hemispheres of CCI traumatized animals receiving either vehicle (sesame oil, CCI-D0) or 3-methoxy-PREG (MAP4343) at 10 mg/kg (CCI-D1) or 20 mg/kg (CCI-D2), with first MAP4343 injection 2 h post-trauma.

[2] = tested on: CCI traumatized animals; assay: Water Exploration Test (WET) after Controlled Cortical Impact (CCI); type: in vivo, rat; parameters: key to Entry number in CZ, Conclusion vs. CCI-D0: ↓: decrease of analyzed variable with p < 0.05; ?: stability of analyzed variable; ↑↑: increase in analyzed variable with p < 0.01; conditions: Day 27; 20 mg/kg (CCI-D2)
Experimental: as §1
The less anxious is a rat, the more time it will, spend “floating” (null velocity) in the central zone (see Fares-2009).
More precisely, a circular tank (180 cm diameter, 60 cm high) is filled with water maintained at 27° C. to a depth of 40 cm. The water is made opaque by adding black gouache, allowing the VideoTrack system (ViewPoint) to detect the white-coloured rat. This tank is divided into 4 identical quadrants (6,358 cm2 each) using two 180 cm long opaque plastic separators. In each quadrant, one rat is introduced with its head facing the corner between the separator and the tank's wall. It is noteworthy to emphasize that 4 rats can be tested simultaneously using the 4 quadrants. […] Thus, the distance, the number of entries, the time spent, and the velocity profile in the CZ are measured to assess anxiety-like behaviour. […]
The effect of 3-methoxy-PREG (MAP4343) on anxiety induced by trauma was analyzed using the WET test.

[3] = MAP4343 in the brain after TBI (CHI, LFP, CCI) by LC-MS/MS; type: in vivo, rat; conditions: 6 h after CHI, LFP or CCI, 4 h after single subcutaneous injection
Experimental: MAP4343 was dissolved in sesame oil and injected sub-cutaneously. Two distinct doses of MAP4343 (10 and 20 mg/kg) were tested in each model. The injection took place 2 h after trauma.
In order to establish whether TBI modifies the passage of MAP4343 into the brain, MAP4343 was measured by liquid chromatography associated to tandem mass spectrometry (LC-MS/MS) in the brain of animals sacrificed 6 h after CHI, LFP or CCI (4 h after MAP4343 single injection).
In order to establish whether TBI modifies the passage of 3-methoxy-PREG (MAP434) into the brain, MAP4343 was measured by liquid chromatography coupled to tandem mass spectrometry LC-MS/MS in the brain of animals sacrificed 6 h after CHI, LFP or CCI (4 h. after MAP4343 injection).

[4] = tested on: Sprague Dawley rats; assay: Novel object recognition test, naive animals, 4 h ITI; type: in vivo, rat; conditions: 10 mg/kg subcutaneously immediately after T1
Source text: Cognitive dysfunction, including impaired recognition memory, are common features in depressed patients (Egeland et al., Scand. J. Psychol. 2005). The present experiment explored the ability of 3-methoxy-PREG (43B) administration to increase recognition memory retention in naive animals and to recover recognition memory deficits in animals submitted to the social isolation protocol. Rearing rats in isolation from the time of weaning and throughout adulthood can induce a series of hippocampal structural and molecular deficits paralled by behavioural alterations resembling a depressive-like state (Weiss and Feldon, Psychopharmacology 2001; Bianchi et al., EJN 2006). Recognition memory was assessed using the NOR test which is a two-trial test of recognition memory based on the spontaneous preference of rats for novelty (Ennaceur and Delacour, Behav. Brain. Res. 1988; Bianchi et al. EJN. 2006). Briefly, rats are placed in the open field arena for a 3 min period of habituation and then re-placed in their “home” cage for 1 min. The animals are then re-placed in the arena for the familiarization trial (T1) and allowed to explore two identical objects for 5 min. […] The ability of the animals to discriminate between the novel and the familiar object is then expressed as D2-INDEX: [novel object (sec)−familiar object (sec)]/[novel object (sec)+familiar object (sec)] […]

[5] = Neurosteroids and 43B levels in rat plasma and hippocampus; conditions: 3 h after 10 mg/kg subcutaneously
[6] = tested on: MAP2; assay: Western blot of MAP2 in cortex and hippocampus after CCI; type: in vivo, rat; conditions: day 35, 20 mg/kg, first injection 2 h post-trauma, injured and non-injured cortex and hippocampus
Experimental: as §1, §2, §3, §4

**Q.** Which results are given for `CO[C@H]1CC[C@@]2(C)C(=CC[C@H]3[C@@H]4CC[C@H](C(C)=O)[C@@]4(C)CC[C@@H]32)C1` [3-methoxy-PREG, 3β-methoxy-pregna-5-ene-20-one]?
**A.** Synaptophysin expression [1]: increase in Synaptophysin expression in injured hippocampus; Entry number in CZ, Conclusion vs. CCI-D0 [2]: ↑↑; Time spent in CZ, Conclusion vs. CCI-D0 [2]: ↑; concentrations of MAP4343 that reach the brain [3]: concentrations of MAP4343 of significant therapeutic interest reach the brain; discrimination between novel and familiar object [4]: discriminated between the novel and the familiar object showing increased memory retention; conversion to PREG or PROG [5]: not converted back to PREG or metabolized to PROG; MAP2 expression [6]: strong increase of MAP-2
